Data: article PMC9738927, “A Newly Identified Monoterpenoid-Based Small Molecule Able to Support the Survival of Primary Cultured Dopamine Neurons and Alleviate MPTP-Induced Toxicity In Vivo” (Molecules, 2022)
Where “and” joins values, the source holds several entries; their conditions need not be identical. Identical values can stand only once.

What was measured:
[1] = tested on: naïve primary midbrain dopamine neurons; experiment: Survival of naïve cultured dopamine neurons (TH-positive cell count); format: cell-based, mouse
Protocol: (§1) We developed a compound library containing 20 diol derivatives and screened them on cultured primary DA neurons (Supplementary Materials, Table S1). Compounds were taken at a dose of 0.1 and 1 μM (based on effective doses for the epoxydiol). Based on the screening results, we selected four compounds and tested them in a naïve and MPP^+-treated (1-methyl-4-phenylpyridinium (MPP^+), the neurotoxic metabolite of MPTP) DA culture at 1, 10, and 100 nM to select the compound with the lowest effective dose.
(§2) The survival of cultured mouse DA neurons was assessed as described before. Briefly, naïve or MPP^+ (dopaminergic selective neurotoxin)-challenged embryonic midbrain neurons were cultured in the presence or absence of a diol-like compound. The number of survived DA neurons was estimated after immunocytochemical staining with antibodies recognizing the key enzyme of dopamine synthesis—tyrosine hydroxylase.

[2] = tested on: MPP^+-treated primary midbrain dopamine neurons; experiment: Survival of MPP+-challenged cultured dopamine neurons (TH-positive cell count); format: cell-based, mouse
Protocol: as §1, §2

MPTP-treated mice = experiment: Coat hanger test in the acute MPTP mouse model of PD; format: in vivo, C57Bl/6 male mice
[3] = Pharmacokinetics in whole blood after a single oral dose (HPLC-MS/MS); format: in vivo, CD1 IGS mice; conditions: single oral 10 mg/kg
Protocol: Six CD1 IGS mice were administered orally with the compound PA96 in Tween 80 at doses of 10 mg/kg. Blood was collected from the tail after the amputation of a small distal piece. Time points were 5, 10, 30, 60, and 120 min after injection. Experimental blood samples were transferred into tubes for the precipitation of blood proteins with a mixture of zinc sulfate and methanol (2:8, v/v). A set of calibrators were prepared in advance, followed by their preparation protocol, and analyzed by HPLC-MS/MS for standard comparison. The calibration curve was built in the range of 25–2000 ng/mL. According to the signal-concentration profile, the content of PA96 in the experimental blood samples at each time point was calculated.
The stock solution of PA96 (1.0 mg/mL) was prepared by dissolving an accurately weighed amount of the substance in 100% methanol. To obtain a set of working solutions with concentrations of 0.01, 0.05, 0.1, 0.25, 0.5, 1, 2.5, 5, 7.5, 10, 15, and 20 µg/mL, the stock solution of PA96 was diluted with methanol. Calibration standards (calibrators) were prepared by mixing 10 μL of each individual working solution and 90 μL of mouse whole blood. Samples were stirred gently on an orbital shaker at 1000 rpm and left at 4 °C for 1 h for equilibration. The stock solution of IS with a concentration of 1.0 mg/mL was prepared by dissolving a weighed amount of 2-adamantylamine hydrochloride in pure methanol. The solution for the protein precipitation procedure was a mixture of 2 parts of 0.2 M aqueous solutions of zinc sulfate per 8 parts of a solution of IS in methanol with a concentration of 10 µg/mL. All solutions were stored at −18 °C and brought to their ambient temperature before use.
An aliquot of 10 µL of each whole blood sample was placed into an Eppendorf microtube (1.5 mL), then the precipitation solution of 50 µL was added to each tube. All samples were vortexed for 20–30 s and then centrifuged (Eppendorf MiniSpin, Eppendorf, Germany) for 10 min at 13,400 rpm. The supernatant was transferred into a chromatographic vial and analyzed.
The LC-MS/MS analysis was performed using an LC-20AD Prominence chromatograph equipped with an autosampler thermostated at +10 °C (Shimadzu, Japan) and a 3200 QTRAP mass spectrometer equipped with an ESI source (AB SCIEX, USA). Separation was achieved on a ProntoSil-120-5-C18 AQ column (2.0 × 75 mm, 5 μm particles, (EcoNova, Novosibirsk, Russia)) thermostated at +35 °C. The mobile phase was composed of water containing 0.1% formic acid (eluent A) and methanol containing 0.1% formic acid (eluent B). The gradient elution program was as follows: 0 min-10% (B); 0.5 min-10% (B); 7 min-98% (B); 9 min-98% (B); the flow rate was 200 μL/min.
The mass spectrometer was operated using multiple reaction monitoring (MRM) in positive ion mode. Ionization was conducted by applying a voltage of 5500 V, and the source temperature was set at +350 °C. For the analyte and IS, the optimized source parameters, viz. CUR (curtain gas), GS1 (Gas 1), and GS2 (Gas 2) were set at 20 psi. The CAD (collisionally activated dissociation) gas was nitrogen, and the parameter was set as high. The parameters of PA96, viz. MRM transitions, declustering potentials (DP), collision energies (CE), and collision cell exit potentials (CXP) are presented in Table 3. The dwell time was 100 msec. Analyst 1.6.2 software (AB SCIEX, USA) was used for instrument control and data acquisition, and MultiQuant 2.1 software (AB SCIEX, USA) was used for quantification. To calculate the main pharmacokinetic parameters, the Microsoft Excel–PKSolver was used.

[4] = CD1 IGS, mouse, whole blood, blood

SMILES: C=C(C)[C@@H]1CC=C(C)[C@@H](Sc2nc[nH]n2)[C@@H]1O [PA96, (1R,2R,6S)-2-(1H-1,2,4-triazol-3-ylthio)-3-methyl-6-(prop-1-en-2-yl)cyclohex-3-enol]
- potency relative to epoxydiol in the survival assay ([1]; PA96 vs epoxydiol): up to 100 times
- effective concentration in survival assay for DA neurons ([1]; cultured DA neurons): 1 nM and 1−10 nM
- cytotoxicity in in vitro experiments ([1]; naive neurons and with MPP+): neither cytotoxic effect in naive neurons nor increased cytotoxicity
- number of TH-positive neurons greater than in vehicle-treated wells ([1]; naïve neurons, 1 nM, p = 0.04): 40%
- number of TH-positive neurons relative to VEH-treated wells ([2]; MPP+ and 1 nM, p = 0.03): 2.4 fold
- inhibition at 0.1 µM ([2]; Mus musculus, Neuron, 100 nM, compared to VEH-treated wells, read-out: Support effect / inhibition, MPP+-treated dopamine neurons, 100 nM): 0%
- antiparkinsonian activity in vivo (effective dose) (MPTP-treated mice; MPTP mouse model, per os): 1 mg/kg
- coat hanger score (MPTP-treated mice; MPTP-treated mice, 1 mg/kg, 60 s time point, MPTP 3.6 ± 1.0, p = 0.0324): 6.7 ± 0.2
- increase of movement time in coat hanger test (MPTP-treated mice; MPTP-treated mice, 1 mg/kg, vs MPTP): 40%
- coat hanger score (MPTP-treated mice; MPTP-treated mice, 10 mg/kg, p = 0.0622): trend toward increasing the score
- half-life ([3]; CD1 IGS, mouse, whole blood, po, 10 mg/kg, blood): ~24 min
- AUC0-t [3, 4]: 278 ng·h/mL
- Cmax [3, 4]: 550 ng/mL
- Tmax [3, 4]: 5 min
- AUC(0-inf) ([3]; CD1 IGS, mouse, whole blood, blood, read-out: AUC0-inf_obs): 290 ng·h/mL
- MRT inf ([3]; CD1 IGS, mouse, whole blood, blood, read-out: MRT0-inf_obs (converted)): 29.7 min
- Cl/F_obs ([3]; blood): (5.8 ± 0.6) × 10^−4 (mg/kg)/(ng/mL)/min
- Vz/F_obs ([3]; blood): (18.9 ± 0.6) × 10^−3 (ml/kg)/(ng/mL)
- time at which the minimum detectable concentration in blood was observed [3]: 1 h
